Counter-ions that a name gives are not always drawn.
Key:
[1] = Prolonging effect of the persistent time of gasping movements in complete ischemia (decapitation); type: in vivo, mice (ddY male); details: for minimal effective dose: Mus musculus, po, 2 hours after administration, mice; for activity in prolonging gasping movements, in words: p.o., compared with flunarizine hydrochloride / compounds of the invention
Method: Test was conducted in accordance with the procedure by Wauquier et al. [Japan J. Pharmacol., 38, 1 (1985)], employing five ddY male mice weighing 20-24 g in each group. Test compounds were suspended in 0.5% tragacanth solution and then a fixed amount of the suspension was orally administered to mice in an amount of 0.1 ml/10 g body weight, while the same amount of 0.5% tragacanth solution was orally administered to control group. Two hours after the administration of the test compounds, the necks of mice were cut with scissors for decapitation. The persistent of gasping movements of isolated heads was measured and minimal effective dose was determined by statistically comparing with the data in control group.

[2] = system: lipid peroxidation of brain mitochondria; assay: Inhibitory effect on lipid peroxidation of brain mitochondria (thiobarbituric acid method); type: biochemical; details: rat brain mitochondria; 37° C., 30 minutes; Fe++ 25 μM, ascorbic acid 50 μM
Method: This test was conducted in accordance with the procedures by Kubo et al. [Arch. int. Pharmacodyn., 272, 283 (1984)]. Brain mitochondria of rat were incubated in 25 mM Tris-HCl buffer solution at 37° C. for 30 minutes in the presence of Fe^++ ion (25 μM) and ascorbic acid (50 μM), and the produced peroxidized lipid was measured by the thiobarbituric acid method.

[3] = Prolonging effect on the time to death by hypoxia (anoxia) in mice; type: in vivo, mice (STD-ddY male); details: p.o.; compared with flunarizine hydrochloride
Method: Five STD-ddY male mice (weighing 20-24 g) were employed in each group. A fixed amount of test compounds was suspended in 0.5% tragacanth solution and the suspension was orally administered to mice in an amount of 0.1 ml/10 g body weight. Two hours after the administration, each mouse was taken in a 2.5 liter plastic chamber and a mixed gas comprising 4% oxygen and 96% nitrogen was passed through the chamber at a rate of 4 liter/min. There was measured the time till the death (respiratory cessation) of mice. To control group, a 0.5% tragacanth solution without test compound was orally administered.

Acute toxicity = type: in vivo, mice (ddY male); details: 500 mg/kg p.o.; seven days observation; five mice
Method: Five ddY male mice weighing 20-24 g were employed in each group. The compound 1 of the present invention suspended in a 0.5% tragacanth solution was orally administered to mice at a dose of 500 mg/kg in an amount of 0.1 ml/10 g body weight. After the administration, the occurrence of death has been observed for seven days.

[4] = Anti-convulsant activity (Swinyard); type: in vivo, mice (ddY male); design: key: 9: Anticonvulsant activity was observed in all three mice.; 1: No anticonvulsant activity was observed in all three mice; details: 100 mg/kg p.o.; 2 hours after administration; three mice
Method: Three ddY male mice weighing 20-24 g were employed in each group. Test compounds suspended in a 0.5% tragacanth solution were orally administered to mice at a dose of 100mg/kg in an amount of 0.1 ml/10 g body weight. The same amount of 0.5% tragacanth solution was orally administered to control group. Two hours after the administration of the test compounds, the anti-convulsant activity was measured in accordance with the procedure by Swinyard (Mercier, J., Ed., "Anticonvulsant Drugs", P. 47-65, Pargamon Press, New York, 1973).

Structure (SMILES): COc1ccc(OC)c2c1OCc1ccccc1C2N1CCN(C/C=C/c2ccccc2)CC1 (stereo not shown) [Compound 7]
- minimal effective dose [1]: 30 mg/kg

Structure (SMILES): Oc1ccc2c(c1)C(N1CCN(C/C=C/c3ccccc3)CC1)c1ccccc1CO2 (stereo not shown) [Compound 3, 11-(4-cinnamyl-1-piperazinyl)-2-hydroxy-6,11-dihydrodibenz[b,e]oxepin]
- minimal effective dose [1]: 30 mg/kg
- IC50 [2]: 12.3 µM

Structure (SMILES): Fc1ccc2c(c1)OCc1ccccc1C2N1CCN(C/C=C/c2ccccc2)CC1 (stereo not shown) [Compound 1, 11-(4-cinnamyl-1-piperazinyl)-3-fluoro-6,11-dihydrodibenz[b,e]oxepin]
- minimal effective dose [1]: 10 mg/kg
- prolonging effect under hypoxic condition, in words [3]: clearly more excellent than that o flunarizine hydrochloride
- IC50 [2]: 7.8 µM
- occurrence of death (Acute toxicity): no death
- Score, anti-convulsant activity [4]: 9

Structure (SMILES): Fc1ccc2c(c1)COc1ccc(F)cc1C2N1CCN(C/C=C/c2ccccc2)CC1 (stereo not shown) [Compound 4]
- minimal effective dose [1]: 30 mg/kg
- Score, anti-convulsant activity [4]: 9

Structure (SMILES): Fc1ccc2c(c1)OCc1c(F)cccc1C2N1CCN(C/C=C/c2ccccc2)CC1 (stereo not shown) [Compound 5]
- minimal effective dose [1]: 3 mg/kg

Structure (SMILES): Cc1ccc2c(c1)OCc1ccccc1C2N1CCN(C/C=C/c2ccccc2)CC1 (stereo not shown) [B, 11-(4-cinnamyl-1-piperazinyl)-3-methyl-6,11-dihydrodibenz[b,e]oxepin, reference compound]
- minimal effective dose [1]: > 100 mg/kg
- activity in prolonging gasping movements, in words [1]: lower activities
- IC50 [2]: > 150 µM
- Score, anti-convulsant activity [4]: 1

Structure (SMILES): Fc1ccc2c(c1)OCc1ccc(F)cc1C2N1CCN(C/C=C/c2ccccc2)CC1 (stereo not shown) [Compound 6]
- minimal effective dose [1]: 10 mg/kg

Structure (SMILES): COc1cccc(C=CCN2CCN(C3c4ccccc4COc4cc(F)ccc43)CC2)c1 (stereo not shown) [A, 11-? 4-(3,-methoxycinnamyl)-1-piperazinyl-3-fluoro-6-11dihydrodibenz[b,e]oxepin, reference compound]
- minimal effective dose [1]: > 100 mg/kg
- activity in prolonging gasping movements, in words [1]: lower activities
- IC50 [2]: > 150 µM
- Score, anti-convulsant activity [4]: 1

Structure (SMILES): Fc1ccc2c(c1)C(N1CCN(CC=Cc3cccs3)CC1)c1ccccc1CO2 (stereo not shown) [Compound 8]
- minimal effective dose [1]: 30 mg/kg

Structure (SMILES): Fc1ccc(C(c2ccc(F)cc2)N2CCN(C/C=C/c3ccccc3)CC2)cc1 [Flunarizine hydrochloride, reference compound]
- minimal effective dose [1]: 30 mg/kg
- Score, anti-convulsant activity [4]: 9

Structure (SMILES): COc1ccc2c(c1)C(N1CCN(C/C=C/c3ccccc3)CC1)c1ccccc1CO2 (stereo not shown) [Compound 2, 11-(4-cinnamyl-1-piperazinyl)-2-methoxy-6,11-dihydrodibenz[b,e]oxepin]
- minimal effective dose [1]: 3 mg/kg
- prolonging effect under hypoxic condition, in words [3]: clearly more excellent than that o flunarizine hydrochloride

— patent publication US4889858A, “Dibenz[b,e]oxepin derivatives and pharmaceutical composition containing the same” (Dainippon Pharmaceutical Co., Ltd., priority 1986, dated 1989)
